In PubChem BioAssay AID1963975 (Molecular Pharmacology Branch, DTP, NCI, 2024):
pIC50: −log10 of the molar value. Several values for one entry are separate records, joined by “and”; a condition that tells them apart may be missing. Equal values may be shown once.

Tested on: 624824-186-R-J2-PDC multicell spheroids, viability
Test: Anticancer human tumor 624824-186-R-J2-PDC patient-derived colon adenocarcinoma cell line growth inhibition [PI3K]
Conditions: for viability, T/C: stronger effect = lower value
From the text: Combinatorial screen of targeted agents with the PI3K inhibitors inavolisib, alpelisib, duvelisib, and copanlisib in multi-cell type tumor spheroids
A high-throughput screen of multi-cell type tumor spheroids was designed to identify active combinations of targeted small molecules and PI3K pathway inhibitors. Complex spheroids include a stromal component modeled by human endothelial cells (HUVEC) and fibroblasts modeled by human mesenchymal stem cells (MSCs). The concentration ranges selected for each drug and investigational agent were based upon clinically achievable concentrations if the clinical Cmax of the agent was known.
Compounds. The drugs and investigational agents: inavolisib (NSC800729), alpelisib (NSC765974), duvelisib (NSC772469), copanlisib (NSC816437), ipatasertib (NSC767898), afuresertib (NSC778305), talazoparib (NSC767125), sapanisertib (NSC764658), selumetinib (NSC741078), tovorafenib (DAY101, NSC766906), vemurafenib (NSC761431), ravoxertinib (NSC781343), sotorasib (NSC818433), MRTX1133 (NSC 836407), abemaciclib (NSC 768073), palbociclib (NSC758247), venetoclax (NSC 766270), SY5609 (NSC837396), enzalutamide (NSC755605), and darolutamide (NSC825331), were obtained from the National Cancer Institute (NCI) Developmental Therapeutics Program Chemical Repository. The FDA-approved anticancer drug set is available from the NCI Developmental Therapeutics Program. […] The stock solutions were prepared in dimethyl sulfoxide (DMSO, Sigma-Aldrich, St. Louis, MO, cat. D2650) at 800-fold the tested concentration and stored at -70 degrees C prior to their use. All drugs and investigational agents were tested over a range starting from a high concentration at or near the clinical Cmax and decreasing in half-log increments. If the clinical Cmax for an agent had not been determined, the highest concentration tested was 10 microM.
Cell Culture. All cells were maintained in an incubator at 37 degrees C and 5% CO2 with 95% humidity. The PDC lines were cultured according to standard operating procedures established by the NCI PDMR (https://pdmr.cancer.gov/sops/default.htm). All PDCs were thawed and cultured in Matrigel-coated flasks prepared with a working solution of 1X Ham's F-12 nutrient mix, without supplementation (Invitrogen, Waltham, MA, cat. 11765054), 100 U/mL penicillin-streptomycin (Invitrogen, cat. 15140122), and 2.5% Matrigel (Corning Inc., Corning, NY, cat. 354248) for the first three passages. The 354836-022-R-J1-PDC, 475296-252-R-J1-PDC, and 997726-040-R-J2-PDC lines were cultured in 6A media, which includes advanced DMEM/F-12 (Thermo Fisher Scientific, cat. 12634028), 10 mM HEPES (Thermo Fisher Scientific, cat. 15630080), 1X GlutaMAX supplement (Thermo Fisher Scientific, cat. 35050061), 0.1 mg/mL primocin (InvivoGen, San Diego, CA, cat. ant-pm-2), 10% defined fetal bovine serum, heat inactivated (HyClone Laboratories Inc., Logan, UT, cat. SH30070.03HI), 50% L-WRN conditioned media (ATCC, cat. CRL-3276), 1.25 mM N-Acetyl-L-cysteine (Sigma-Aldrich, cat. A9165), 10 mM nicotinamide (Sigma-Aldrich, cat. N0636), 1X B-27 supplement (Thermo Fisher Scientific, cat. 17504044), 1X N-2 supplement (Thermo Fisher Scientific, cat. 17502048), and 10 microM Y-27632 dihydrochloride (Tocris Bioscience, Bristol, United Kingdom, cat. 1254). The 624824-186-R-J2-PDC line was cultured in 6C/Colon 1B media, which includes all 6A media components plus 50 ng/mL human EGF recombinant protein (Thermo Fisher Scientific, cat. PHG0311). […]

[1] = compound alone, run of 06/12/2023
[2] = compound alone, run of 06/13/2023
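Also: spheroids exposed to agents for 7 days before viability read.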
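For viability, T/C in this document: 100% = DMSO vehicle treated spheroids.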

SMILES	pIC50 (curve of compound)	IC50 (curve of compound)	viability, T/C (compound 0.0316 µM)	viability, T/C (compound 0.316 µM)	viability, T/C (compound 3.16 µM)	viability, T/C (compound 10 µM)	viability, T/C (compound 0.1 µM)	viability, T/C (compound 1 µM)	further results
C#Cc1c(F)ccc2cc(O)cc(-c3ncc4c(N5CC6CCC(C5)N6)nc(OCC56CCCN5CC(F)C6)nc4c3F)c12 (configuration not stated)	< 5.00		94.5% [middle of 4 runs]	97% [middle of 4 runs]	84.7% [middle of 4 runs]	86.3% [middle of 4 runs]			
C=CC(=O)N1CCN(c2nc(=O)n(-c3c(C)ccnc3C(C)C)c3nc(-c4c(O)cccc4F)c(F)cc23)C(C)C1 (configuration not stated)	< 5.00			82.1% [middle of 4 runs]		100% [middle of 4 runs]	82% [middle of 4 runs]	99.7% [middle of 4 runs]	
CC(=O)c1c(C)c2cnc(Nc3ccc(N4CCNCC4)cn3)nc2n(C2CCCC2)c1=O	< 7.00						87.5% [middle of 4 runs]		viability, T/C (compound 0.00316 µM): 93.5% [middle of 4 runs]
CC(C)NCC(C(=O)N1CCN(c2ncnc3c2C(C)CC3O)CC1)c1ccc(Cl)cc1 (configuration not stated)	< 5.00			84.4% [middle of 4 runs]	88.5% [middle of 4 runs]	85.7% [middle of 4 runs]	92.5% [middle of 4 runs]		
CC(Nc1ccc2c(c1)OCCn1cc(N3C(=O)OCC3C(F)F)nc1-2)C(N)=O (configuration not stated)			84.8% [middle of 8 runs]	89.7% [middle of 8 runs]			90.3% [middle of 8 runs]	95.2% [middle of 8 runs]	viability, T/C (compound 0.01 µM): 95% [middle of 8 runs]; pIC50 [1]: < 6.00
CC(Nc1ncnc2nc[nH]c12)c1cc2cccc(Cl)c2c(=O)n1-c1ccccc1 (configuration not stated)				91.6% [middle of 8 runs]				91.4% [middle of 8 runs]	pIC50 [2]: < 5.00
CC1(C)CCC(CN2CCN(c3ccc(C(=O)NS(=O)(=O)c4ccc(NCC5CCOCC5)c([N+](=O)[O-])c4)c(Oc4cnc5[nH]ccc5c4)c3)CC2)=C(c2ccc(Cl)cc2)C1	< 5.00			80.4% [middle of 4 runs]	67% [middle of 4 runs]	72.2% [middle of 4 runs]	78.7% (2×) and 107% and 95.2%		
CC1(C)CCC(Nc2ncc(C(F)(F)F)c(-c3c[nH]c4c(P(C)(C)=O)c(C#N)ccc34)n2)CN1 (configuration not stated)		4.11 µM [middle of 4 runs]		102% [middle of 4 runs]	62.5% [middle of 4 runs]	7.89% [middle of 4 runs]	76.4% [middle of 4 runs]	104% [middle of 4 runs]	
CCN1CCN(Cc2ccc(Nc3ncc(F)c(-c4cc(F)c5nc(C)n(C(C)C)c5c4)n3)nc2)CC1	< 6.00		86.1% [middle of 4 runs]	93.5% [middle of 4 runs]			93.7% [middle of 4 runs]	102% [middle of 4 runs]	
CNC(=O)c1ccc(N2C(=S)N(c3ccc(C#N)c(C(F)(F)F)c3)C(=O)C2(C)C)cc1F	< 5.00								
COc1c(OCCCN2CCOCC2)ccc2c3n(c(=NC(=O)c4cnc(N)nc4)nc12)CCN3			88.2% [middle of 8 runs]	67.3% [middle of 8 runs]			75.5% [middle of 8 runs]	65.1% [middle of 8 runs]	viability, T/C (compound 0.01 µM): 91.7% [middle of 8 runs]; pIC50 [2]: < 6.00
C[C@@H](NC(=O)c1ncnc(N)c1Cl)c1ncc(C(=O)Nc2cc(C(F)(F)F)c(Cl)cn2)s1	< 5.00				68% [middle of 4 runs]			81.6% [middle of 4 runs]	
Cc1nc(NC(=O)N2CCCC2C(N)=O)sc1-c1ccnc(C(C)(C)C(F)(F)F)c1 (configuration not stated)						80.8% [middle of 8 runs]	83.4% [middle of 8 runs]		pIC50 [1]: < 5.00
Cn1cnc2c(F)c(Nc3ccc(Br)cc3Cl)c(C(=O)NOCCO)cc21	< 5.52								viability, T/C (compound 0.00949 µM): 85.4% [middle of 4 runs]; viability, T/C (compound 0.949 µM): 79.5% [middle of 4 runs]
Cn1ncc(Cl)c1-c1cc(C(=O)NC(CN)Cc2cccc(F)c2)sc1Cl (configuration not stated)	< 5.00			74.5% [middle of 4 runs]	68.2% [middle of 4 runs]	59.2% [middle of 4 runs]	79.8% [middle of 4 runs]	89.4% [middle of 4 runs]	

Further lines, with some results ahead:

pIC50 (curve of compound)	IC50 (curve of compound)	SMILES	viability, T/C (compound 0.0316 µM)	viability, T/C (compound 0.316 µM)	viability, T/C (compound 3.16 µM)	viability, T/C (compound 10 µM)	viability, T/C (compound 0.1 µM)	viability, T/C (compound 1 µM)	further results
< 7.00		CC(C)n1nc(-c2ccc3oc(N)nc3c2)c2c(N)ncnc21	76.4% [middle of 4 runs]				79.5% [middle of 4 runs]		viability, T/C (compound 0.00316 µM): 79.1% [middle of 4 runs]; viability, T/C (compound 0.01 µM): 82.6% [middle of 4 runs]
< 5.00		CC(Cn1ccc(-c2ccc(C#N)c(Cl)c2)n1)NC(=O)c1cc(C(C)O)[nH]n1 (configuration not stated)	91.5% [middle of 4 runs]	89.7% [middle of 4 runs]	101% [middle of 4 runs]	106% [middle of 4 runs]		92.9% [middle of 4 runs]	
5.02 and < 5.00 and 5.03		CCCS(=O)(=O)Nc1ccc(F)c(C(=O)c2c[nH]c3ncc(-c4ccc(Cl)cc4)cc23)c1F	90.4% [middle of 4 runs]	88% [middle of 4 runs]	122% [middle of 4 runs]	52.3% [middle of 4 runs]	90.6% [middle of 4 runs]		
< 5.00		Cn1nccc1Nc1nccc(-c2ccn(C(CO)c3ccc(Cl)c(F)c3)c(=O)c2)n1 (configuration not stated)	88.9% [middle of 4 runs]	72.8% [middle of 4 runs]	91.2% [middle of 4 runs]			94% [middle of 4 runs]	
< 7.00		Cn1ncnc1[C@H]1c2n[nH]c(=O)c3cc(F)cc(c23)N[C@@H]1c1ccc(F)cc1	103% [middle of 4 runs]				89.3% [middle of 4 runs]		viability, T/C (compound 0.000316 µM): 99.1% [middle of 4 runs]; viability, T/C (compound 0.00316 µM): 90.5% [middle of 4 runs]
